From patent US12612412B2, “Antiviral heterocyclic compounds” (Enanta Pharmaceuticals, Inc., priority 2021, dated 2026) come the findings set out here.

The assay relates to genotype A, "Long" strain RSV. The assay is described as follows: RSV-A assay (CPE protection in Hep-2 cells, ATPlite readout). The assay is classed as cell-based, Human respiratory syncytial virus (HRSV). Conditions: human respiratory syncytial virus, genotype A “Long” strain RSV, MOI 0.1, CPE protection, read-out: Human RSV-A (“Long”). The text has this:
Hep-2 cells, (originally derived from tumors grown in irradiated-cortisonised weanling rats that had been injected with epidermoid carcinoma tissue from the larynx of a person, but later found to be indistinguishable from HeLa cells by PCR DNA analysis), were used for the culturing of genotype A, “Long” strain RSV. Flasks were inoculated with RSV and viral stocks were collected once cytopathic effect (CPE) was greater than 90%. Viral stocks in 25% sucrose media were snap frozen using liquid nitrogen to increase viral stability. Viral stock titers were quantified by tissue culture infectious dose 50% (TCID50) using 8,000 cells per well and 3-fold viral dilutions across a 96-well plate, cultured for 4 days. Viral stock titers were also quantified by a plaque forming unit assay, as described elsewhere.
Following extensive parameter testing, the final assay is run as follows: Hep-2 cells are seeded into the inner 60 wells of a 96-well plate at 8,000 cells per well in a volume of 50 μL using Growth Media (DMEM without phenol red, 1% L-Glut, 1% Penn/Strep, 1% nonessential amino acids, 10% heat-inactivated FBS). 2-fold serial dilutions of control and test compounds are added to the wells in duplicate in a total volume of 25 μL. Viral stock is then added to the wells at a multiplicity of infection (MOI) of 0.1 in a volume of 25 μL, bringing the total volume of each well to 100 μL. The MOI is calculated using the PFU/mL, or TCID50 if unavailable. Each 96-well plate has a control column of 6 wells with cells and virus but no compound (negative control, max CPE), a column with cells but no compound or virus (positive control, minimum CPE), and a column with no cells or virus or compound (background plate/reagent control). The control wells with cells but no virus are given an additional 25 μL of growth media containing an equal quantity of sucrose as those wells receiving the viral stock in order to keep consistent in media and volume conditions. The outer wells of the plate are filled with 125 μL of moat media (DMEM, 1% Penn/Strep) to act as a thermal and evaporative moat around the test wells. Following a 5-day incubation period, the plates are read using ATPlite (50 uL added per well), which quantifies the amount of ATP (a measure of cell health) present in each well. Assay plates are read using the Envision luminometer. […] EC50 ranges are as follows: A<0.2 μM; B>0.2 μM.
Background: ATP-based viability assays read luminescence as a measure of living cells.

Consider `COc1cc(C(=O)NC[C@](O)(c2cc3c(c(-c4ccc(F)cc4)n2)OC[C@]3(C)C(N)=O)C(F)(F)F)cc2cc(C)c(C(=O)O)nc12` [Example 5], for which the EC50 was more than 200 nM. The value for `Cc1nc2c(F)cc(C(=O)NC[C@](O)(c3cc4c(c(-c5ccc(F)cc5)n3)OC[C@]4(C)C(N)=O)C(F)(F)F)cc2s1` [Example 15] was less than 200 nM; that for `C[C@]1(C(N)=O)COc2c1cc([C@@](O)(CNC(=O)c1ccc3nc(C4CC4)sc3c1)C(F)(F)F)nc2-c1ccc(F)c(Cl)c1` [Example 18] was less than 200 nM; that for `C[C@]1(C(N)=O)COc2c1cc([C@@](O)(CNC(=O)c1cnc3nc(C4CC4)sc3c1)C(F)(F)F)nc2-c1ccc(F)cc1` [Example 21] was less than 200 nM. The same measure for `Cn1nc(F)c2cc(C(=O)NC[C@](O)(c3cc4c(c(-c5ccc(F)cc5)n3)OC[C@]4(C)C(N)=O)C(F)(F)F)ccc21` [Example 31]: more than 200 nM; for `C[C@]1(C(N)=O)COc2c1cc([C@@](O)(CNC(=O)c1ccn3cc(C4CC4)nc3c1)C(F)(F)F)nc2-c1ccc(F)cc1` [Example 33]: more than 200 nM. The same measure for `CC(C)(O)CNC(=O)[C@@]1(C)COc2c1cc([C@@](O)(CNC(=O)c1ccc3c(c1)CN(C1CC1)C3=O)C(F)(F)F)nc2-c1ccc(F)cc1` [Example 35]: less than 200 nM; for `CCN1Cc2cc(C(=O)NC[C@](O)(c3cc4c(c(-c5ccc(F)cc5)n3)OC[C@]4(C)C(N)=O)C(F)(F)F)ccc2C1=O` [Example 36]: less than 200 nM. With `Cc1ccc2cc(C(=O)NC[C@](O)(c3cc4c(c(-c5ccc(F)cc5)n3)OC[C@]4(C)C(N)=O)C(F)(F)F)cc(N3CCCC3=O)c2n1` [Example 38], the EC50 is more than 200 nM. The value for `Cc1ccc2cc(C(=O)NC[C@](O)(c3cc4c(c(-c5ccc(F)c(Cl)c5)n3)OC[C@]4(C)C(N)=O)C(F)(F)F)cc(N3CCCC3=O)c2n1` [Example 39] was more than 200 nM. The value for `COc1cc(C(=O)NC[C@](O)(c2cc3c(c(-c4ccc(F)c(Cl)c4)n2)OC[C@]3(C)C(N)=O)C(F)(F)F)cc2cn(C(F)F)nc12` [Example 46] was less than 200 nM; that for `C[C@]1(C(N)=O)COc2c1cc([C@@](O)(CNC(=O)c1ccc3nc(N)cn3c1)C(F)(F)F)nc2-c1ccc(F)cc1` [Example 56] was more than 200 nM; that for `COc1cc(C(=O)NC[C@](O)(c2cc3c(c(-c4ccc(F)cc4)n2)OC[C@]3(C)C(N)=O)C(F)(F)F)cn2cc(C(N)=O)nc12` [Example 61] was less than 200 nM. The value for `CC(C)(O)c1cn2cc(C(=O)NC[C@](O)(c3cc4c(c(-c5ccc(F)cc5)n3)OC[C@]4(C)C(N)=O)C(F)(F)F)cc(F)c2n1` [Example 66] was more than 200 nM; that for `C[C@]1(C(N)=O)COc2c1cc([C@@](O)(CNC(=O)c1ccn3nc(C4CC4)cc3c1)C(F)(F)F)nc2-c1ccc(F)c(Cl)c1` [Example 67] was less than 200 nM.

Regarding `C[C@]1(C(N)=O)COc2c1cc([C@@](O)(CNC(=O)c1ccc3ncc(C(F)(F)F)cc3c1)C(F)(F)F)nc2-c1ccc(F)cc1` [Example 69], the EC50 was less than 200 nM. The same measure for `COc1cc(C(=O)NC[C@](O)(c2cc3c(c(-c4ccc(F)cc4)n2)OC[C@]3(C)C(N)=O)C(F)(F)F)cc2cc3c(nc12)CCC3` [Example 71]: less than 200 nM; for `COc1cc(C(=O)NC[C@](O)(c2cc3c(c(-c4ccc(F)cc4)n2)OC[C@]3(C)C(N)=O)C(F)(F)F)cc2cc(C(=O)O)c(C)nc12` [Example 76]: more than 200 nM.

For the molecule `C[C@]1(C(N)=O)COc2c1cc([C@@](O)(CNC(=O)c1cc(F)c3nc(C(N)=O)cn3c1)C(F)(F)F)nc2-c1ccc(F)cc1` [Example 79], the EC50 is more than 200 nM. The same measure for `C[C@]1(C(N)=O)COc2c1cc([C@@](O)(CNC(=O)c1ccn3nc(N)cc3c1)C(F)(F)F)nc2-c1ccc(F)cc1` [Example 87]: less than 200 nM; for `C[C@]1(C(N)=O)COc2c1cc([C@@](O)(CNC(=O)c1ccn3nc(C4CC4)cc3c1)C(F)(F)F)nc2-c1ccc(F)cc1` [Example 88]: less than 200 nM; for `COc1cc(C(=O)NC[C@](O)(c2cc3c(c(-c4ccc(F)cc4)n2)OC[C@]3(C)C(N)=O)C(F)(F)F)cc2nc(N)oc12` [Example 89]: less than 200 nM.

`C[C@]1(C(N)=O)COc2c1cc([C@@](O)(CNC(=O)c1cc(F)c3oc(N)nc3c1)C(F)(F)F)nc2-c1ccc(F)cc1` [Example 90]: the EC50 was less than 200 nM. As to `C[C@]1(C(N)=O)COc2c1cc([C@@](O)(CNC(=O)c1cc(F)c3[nH]c(C4CC4)nc3c1)C(F)(F)F)nc2-c1ccc(F)cc1` [Example 93], the EC50 is less than 200 nM.

`C[C@]1(C(N)=O)COc2c1cc([C@@](O)(CNC(=O)c1cc(Cl)c3nnc(C(F)(F)F)cc3c1)C(F)(F)F)nc2-c1ccc(F)cc1` [Example 98]: the EC50 is less than 200 nM. `COc1cc(C(=O)NC[C@](O)(c2cc3c(c(-c4ccc(F)cc4)n2)OC[C@]3(C)C(N)=O)C(F)(F)F)cc2cn(CC(F)(F)F)nc12` [Example 99]: the EC50 is less than 200 nM.

As for `Cc1c(C(=O)NC[C@](O)(c2cc3c(c(-c4ccc(F)cc4)n2)OC[C@]3(C)C(N)=O)C(F)(F)F)ccc2[nH]ncc12` [Example 101], the EC50 was less than 200 nM. Regarding `C[C@]1(C(N)=O)COc2c1cc([C@@](O)(CNC(=O)c1cc(F)c3[nH]ncc3c1)C(F)(F)F)nc2-c1ccc(F)cc1` [Example 104], the EC50 is less than 200 nM. The same measure for `C[C@]1(C(N)=O)COc2c1cc([C@@](O)(CNC(=O)c1cc3cn[nH]c3cc1Cl)C(F)(F)F)nc2-c1ccc(F)cc1` [Example 106]: more than 200 nM. The value for `C[C@]1(C(N)=O)COc2c1cc([C@@](O)(CNC(=O)c1ccc3[nH]nnc3c1)C(F)(F)F)nc2-c1ccc(F)cc1` [Example 107] was more than 200 nM. The value for `C[C@]1(C(N)=O)COc2c1cc([C@@](O)(CNC(=O)c1ccc3nncn3c1)C(F)(F)F)nc2-c1ccc(F)cc1` [Example 109] was more than 200 nM; that for `C[C@]1(C(N)=O)COc2c1cc([C@@](O)(CNC(=O)c1ccc3nnnn3c1)C(F)(F)F)nc2-c1ccc(F)cc1` [Example 110] was more than 200 nM.

Take `C[C@]1(C(N)=O)COc2c1cc([C@@](O)(CNC(=O)c1cc(O)c3[nH]ncc3c1)C(F)(F)F)nc2-c1ccc(F)cc1` [Example 111]: the EC50 was more than 200 nM. The same measure for `Cc1cnc2c(Nc3ccc(C(C)C)nn3)cc(C(=O)NC[C@](O)(c3cc4c(c(-c5ccc(F)cc5)n3)OC[C@]4(C)C(N)=O)C(F)(F)F)cc2c1` [Example 115]: less than 200 nM; for `Cc1cnc2c(Nc3ccc(C(F)(F)F)nn3)cc(C(=O)NC[C@](O)(c3cc4c(c(-c5ccc(F)cc5)n3)OC[C@]4(C)C(N)=O)C(F)(F)F)cc2c1` [Example 116]: less than 200 nM; for `CCc1ccc(Nc2cc(C(=O)NC[C@](O)(c3cc4c(c(-c5ccc(F)cc5)n3)OC[C@]4(C)C(N)=O)C(F)(F)F)cc3cc(C)cnc23)nn1` [Example 117]: less than 200 nM.

As to `Cc1cnc2c(Nc3ccc(C(C)(C)C)nn3)cc(C(=O)NC[C@](O)(c3cc4c(c(-c5ccc(F)cc5)n3)OC[C@]4(C)C(N)=O)C(F)(F)F)cc2c1` [Example 118], the EC50 is less than 200 nM. In the case of `Cc1cnc2c(Nc3ccc(F)nn3)cc(C(=O)NC[C@](O)(c3cc4c(c(-c5ccc(F)cc5)n3)OC[C@]4(C)C(N)=O)C(F)(F)F)cc2c1` [Example 119], the EC50 is less than 200 nM. The value for `Cc1cc(C(=O)NC[C@](O)(c2cc3c(c(-c4ccc(F)cc4)n2)OC[C@]3(C)C(N)=O)C(F)(F)F)cc2cn[nH]c12` [Example 122] was less than 200 nM; that for `CC(C)c1cc(C(=O)NC[C@](O)(c2cc3c(c(-c4ccc(F)cc4)n2)OC[C@]3(C)C(N)=O)C(F)(F)F)cc2cn[nH]c12` [Example 123] was less than 200 nM. The same measure for `CC(C)c1cc2[nH]ncc2cc1C(=O)NC[C@](O)(c1cc2c(c(-c3ccc(F)cc3)n1)OC[C@]2(C)C(N)=O)C(F)(F)F` [Example 125]: more than 200 nM; for `C[C@]1(C(N)=O)COc2c1cc([C@@](O)(CNC(=O)c1cc3cn[nH]c3cc1C1CC1)C(F)(F)F)nc2-c1ccc(F)cc1` [Example 126]: more than 200 nM; for `Cc1cc2[nH]ncc2cc1C(=O)NC[C@](O)(c1cc2c(c(-c3ccc(F)cc3)n1)OC[C@]2(C)C(N)=O)C(F)(F)F` [Example 127]: more than 200 nM. The same measure for `C[C@]1(C(N)=O)COc2c1cc([C@@](O)(CNC(=O)c1ccc3nc(C(N)=O)sc3c1)C(F)(F)F)nc2-c1ccc(F)cc1` [Example 130]: less than 200 nM.

As for `COc1cc(C(=O)NC[C@](O)(c2cc3c(c(-c4ccc(F)cc4)n2)OC[C@]3(C)C(N)=O)C(F)(F)F)ccc1OC[C@@H](O)C(F)(F)F` [Example 131], the EC50 was less than 200 nM.
